According to patent US20120220546A1, “COMPOSTIONS DESIGNED FOR THE INHIBITION AND/OR BLOCKING OF THE EPITHELIAL/MESENCHYMAL TRANSITION” (priority 2009, published 2012):

Tested on: zebrafish embryos
Experiment: Zebrafish embryo model of EMT inhibition
Assay type: in vivo
Details: 100 μM DAPT dissolved in the medium, 32-hpf embryos
Description: The necessary embryos to develop the study were obtained and kept at 28.5° C. in the incubator until the treatment was to begin (24 hpf and 32 hpf). The embryos were dechorionated at 24 hpf and deposited on a Petri dish with E3 medium. Prior to injecting the product, the fish were treated with 0.04% tricaine and, once they were asleep, they were placed on an agarose plate with a number of wedge-shaped grooves, where the embryos were aligned and immobilised in order to be injected. The mixture of the assay product to be injected was loaded in the injection capillary and a volume of 15 nl was injected in the perivitelline space. 20 embryos were injected per condition. […] These were deposited in 24-well plates (5 embryos per well) in 0.5 ml of E3 medium without methylene blue or antibiotic, and incubated at 28.5° C. until they were to be analyzed. As a control, embryos were injected with HBSS +0.5% rhodamine-dextran. […]
The embryos were analyzed at 53, 72 and 96 hpf, and the presence of the following phenotypes was searched for in each of the embryos used in the study: • alteration of the somite bonds (somite boundaries). • morphological alterations of the embryos in general. • appearance of edemas in the pericardial area. • morphological alterations in the heart, as well as alterations in blood circulation and alterations in the formation of the vascular system.

C[C@H](NC(=O)Cc1cc(F)cc(F)c1)C(=O)N[C@H](C(=O)OC(C)(C)C)c1ccccc1 [DAPT]
phenotype of positive control: appearance of pericardial edemas, alterations of the somite bonds, and alteration or absence of blood circulation
